# Assay results from ChEMBL document CHEMBL1201862, “PubChem BioAssay data set” (2004).
#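 Each compound was tested at five concentrations against cells in 96-well plates for 48 hours. GI50: concentration for 50% inhibition of growth.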 Calls of active or inactive are those of the source. Cut-off read from the data, not from the text of the source: active = GI50 up to about 1.1 µM and inactive = higher.
# What was measured:
# Assay in all cases: NCI anticancer screen, dose series, 48 h
# A549 = test system: A549
# SN12C = test system: SN12C
# Malme-3M = test system: Malme-3M
# OVCAR-4 = test system: OVCAR-4
# KM12 = test system: KM12
# SK-MEL-5 = test system: SK-MEL-5
# HL-60 = test system: HL-60
# SF-268 = test system: SF-268
# SNB-75 = test system: SNB-75
# HOP-92 = test system: HOP-92
# SK-OV-3 = test system: SK-OV-3
# RXF 393 = test system: RXF 393
# U-251 = test system: U-251
# SF-295 = test system: SF-295
# COLO 205 = test system: COLO 205
# NCI-H522 = test system: NCI-H522
# SR = test system: SR
SMILES,GI50 (A549),GI50 (SN12C),GI50 (Malme-3M),GI50 (OVCAR-4),GI50 (KM12),GI50 (SK-MEL-5),GI50 (HL-60),GI50 (SF-268),GI50 (SNB-75),GI50 (HOP-92),GI50 (SK-OV-3),GI50 (RXF 393),GI50 (U-251),GI50 (SF-295),GI50 (COLO 205),GI50 (NCI-H522),GI50 (SR)
Cc1c(C2=NN=C(/N=N/c3c(O)cccc3O)/C2=C/c2ccccc2)c(=O)n(-c2ccccc2)n1C,> 100 µM (inactive),> 100 µM (inactive),> 100 µM (inactive),> 100 µM (inactive),> 100 µM (inactive),> 100 µM (inactive),> 100 µM (inactive),> 100 µM (inactive),> 100 µM (inactive),> 100 µM (inactive),> 100 µM (inactive),> 100 µM (inactive),> 100 µM (inactive),> 100 µM (inactive),> 100 µM (inactive),> 100 µM (inactive),
O=C(NN1C(=O)CSC1c1ccc(Cl)c(Cl)c1)c1ccncc1 (centres undefined),58.1 µM (inactive),75.9 µM (inactive),87.7 µM (inactive),54.1 µM (inactive),38.1 µM (inactive),46.9 µM (inactive),37.8 µM (inactive),78.3 µM (inactive),> 100 µM (inactive),,> 100 µM (inactive),58.3 µM (inactive),> 100 µM (inactive),54.3 µM (inactive),> 100 µM (inactive),72.8 µM (inactive),
CN(C)CCNc1c([N+](=O)[O-])cc2c3c(cccc13)C(=O)N(CCN(C)C)C2=O,1.84 µM (inactive),1.46 µM (inactive),0.635 µM (active),0.807 µM (active),8.18 µM (inactive),2.18 µM (inactive),1.68 µM (inactive),2.2 µM (inactive),1.7 µM (inactive),0.587 µM (active),1.76 µM (inactive),1.42 µM (inactive),1.82 µM (inactive),1.24 µM (inactive),1.11 µM (active),1.25 µM (inactive),
CN1C(=N\S(=O)(=O)c2ccc(Cl)cc2)/C(=N/N=P(c2ccccc2)(c2ccccc2)c2ccccc2)c2ccccc21,95.7 µM (inactive),> 100 µM (inactive),> 100 µM (inactive),> 100 µM (inactive),> 100 µM (inactive),> 100 µM (inactive),,> 100 µM (inactive),> 100 µM (inactive),,> 100 µM (inactive),> 100 µM (inactive),> 100 µM (inactive),> 100 µM (inactive),> 100 µM (inactive),> 100 µM (inactive),> 100 µM (inactive)
CC(=O)N[C@@H]1C(O)CN2C(=O)C(=O)O[C@H](C(O)CO)[C@@H]12 (some centres undefined),> 100 µM (inactive),,> 100 µM (inactive),,> 100 µM (inactive),,> 100 µM (inactive),> 100 µM (inactive),> 100 µM (inactive),> 100 µM (inactive),> 100 µM (inactive),> 100 µM (inactive),> 100 µM (inactive),> 100 µM (inactive),> 100 µM (inactive),> 100 µM (inactive),
O=[N+]([O-])c1ccc(Nc2cccc3c4cc[nH]c(-c5ccccc5)c-4nc23)c([N+](=O)[O-])c1,> 100 µM (inactive),> 100 µM (inactive),> 100 µM (inactive),> 100 µM (inactive),> 100 µM (inactive),> 100 µM (inactive),> 100 µM (inactive),> 100 µM (inactive),> 100 µM (inactive),> 100 µM (inactive),> 100 µM (inactive),> 100 µM (inactive),> 100 µM (inactive),> 100 µM (inactive),> 100 µM (inactive),> 100 µM (inactive),
Cc1ccc2c(c1)C1C(CO2)C(c2ccccc2)=NN1c1ccccc1 (centres undefined),> 100 µM (inactive),,> 100 µM (inactive),,> 100 µM (inactive),,72.3 µM (inactive),> 100 µM (inactive),> 100 µM (inactive),80.5 µM (inactive),> 100 µM (inactive),> 100 µM (inactive),> 100 µM (inactive),> 100 µM (inactive),> 100 µM (inactive),> 100 µM (inactive),
COC(=O)Cc1cc(=O)n2c([nH]c3ccccc32)c1C#N,> 100 µM (inactive),82.6 µM (inactive),81.3 µM (inactive),> 100 µM (inactive),> 100 µM (inactive),34.8 µM (inactive),> 100 µM (inactive),> 100 µM (inactive),0.42 µM (active),,36.1 µM (inactive),97.3 µM (inactive),49.3 µM (inactive),> 100 µM (inactive),> 100 µM (inactive),,> 100 µM (inactive)
C=CCNC(=O)C(C)C1CCC2(C)C=CC(=O)C(C)=C2C1O (centres undefined),> 100 µM (inactive),> 100 µM (inactive),,> 100 µM (inactive),> 100 µM (inactive),> 100 µM (inactive),> 100 µM (inactive),> 100 µM (inactive),> 100 µM (inactive),> 100 µM (inactive),> 100 µM (inactive),> 100 µM (inactive),> 100 µM (inactive),> 100 µM (inactive),> 100 µM (inactive),> 100 µM (inactive),
